According to patent US20200017752A1, “Use Of A Composition Containing At Least One Biodegradable Sugar-Amide-Compound In Combination With At Least One Sulfur-Based Synergist For Corrosion Inhibition Of A Metallic Equipment In Oilfield Applications” (Clariant International Ltd., priority 2016, published 2020):

Test system: Algae
Assay: Aquatic toxicity testing, 72 hr Algae EC50
Format: cell-based
Conditions: definitive
Experimental: (§1) Firstly the environmental data were determined according to OECD 306 biodegradability and aquatic toxicity testing on the glucamides and the result is outlined in Tables 1 and 2.

SMILES	72 hr Algae EC50, Definitive result
CCCCCCCCCC(=O)N(C)CC(O)C(O)C(O)C(O)CO (centres unmarked) [Glucamide #1]	165.24 µg/mL
CCCCCCCC/C=C\CCCCCCCC(=O)N(C)CC(O)C(O)C(O)C(O)CO (centres unmarked) [Glucamide #5]	4.55 µg/mL

Same assay, conditions: range-finding

SMILES	72 hr Algae EC50, Range-finding result
CCCCCCCCCC(=O)N(C)CC(O)C(O)C(O)C(O)CO (centres unmarked) [Glucamide #1]	335.40 µg/mL
CCCCCCCC/C=C\CCCCCCCC(=O)N(C)CC(O)C(O)C(O)C(O)CO (centres unmarked) [Glucamide #5]	6.199 µg/mL

Test system: not listed separately
Assay: Marine BODIS biodegradation
Conditions: day 7
Experimental: as §1

SMILES	Marine BODIS biodegradation Day 7
CCCCCCCC/C=C\CCCCCCCC(=O)N(C)CC(O)C(O)C(O)C(O)CO (centres unmarked) [Glucamide #5]	23%
O=C([O-])c1ccccc1.[Na+] [Reference, sodium benzoate, reference compound]	66%

Same assay, conditions: day 14

SMILES	Marine BODIS biodegradation Day 14
CCCCCCCC/C=C\CCCCCCCC(=O)N(C)CC(O)C(O)C(O)C(O)CO (centres unmarked) [Glucamide #5]	33%
O=C([O-])c1ccccc1.[Na+] [Reference, sodium benzoate, reference compound]	77%

Same assay, conditions: day 21

SMILES	Marine BODIS biodegradation Day 21
CCCCCCCC/C=C\CCCCCCCC(=O)N(C)CC(O)C(O)C(O)C(O)CO (centres unmarked) [Glucamide #5]	37%
O=C([O-])c1ccccc1.[Na+] [Reference, sodium benzoate, reference compound]	81%

Same assay, conditions: day 28

SMILES	Marine BODIS biodegradation Day 28
CCCCCCCC/C=C\CCCCCCCC(=O)N(C)CC(O)C(O)C(O)C(O)CO (centres unmarked) [Glucamide #5]	42%
O=C([O-])c1ccccc1.[Na+] [Reference, sodium benzoate, reference compound]	83%

Test system: not listed separately
Assay: Corrosion test, rotating cylinder electrode (RCE), LPR
Conditions: 150° F., 2000 RPM, synthetic brine, 100% CO2, 12 ppm total inhibitor, vs 2 hr baseline
Excerpt: In order to evaluate the corrosion inhibition efficacy of the formulations, two different test methods were employed: rotating cylinder electrode (RCE) tests and high pressure, high temperature (HPHT) autoclave weight loss tests. For all testing, the following standard brine composition was used (as outlined in table 3):
A gas composition of 100% CO2 was used throughout testing.
The metallurgy of the coupons tested was C1018 carbon steel for RCE testing and HPHT autoclave testing. Coupons were polished mechanically using 320 grit silicon-carbide (SiC) paper, 400 grit SiC paper, then 600 grit SIC paper and rinsed with water then acetone prior to testing.
The rotating cylinder electrode (RCE) tests were conducted in Pyrex™ glass reaction kettles that were heated to 150° F. The testing solution was comprised of 900 mL of brine. The electrode rotation rate was set at 2000 RPM, which generated a wall shear stress of 7.0 Pa. Linear polarization resistance (LPR) measurements were made with a Gamry electrochemical measurement system. The working electrode was made of a 1018 carbon steel (CS) cylinder with a surface area of 3.16 cm^2. A Hastelloy C276 electrode was used as a pseudo-reference, and a titanium rod was used as the counter electrode. […] The baseline corrosion rate corresponds to the blank corrosion value. Upon completion of the tests, the electrodes were cleaned in an inhibited acid bath according to ASTM G1 C.3.5, and weighed to 0.1 mg.

SMILES	Protection 2 hr after Cl dose	Protection Final 3 hr
N.O=C(O)CS [ATG, Ammonium Thioglycolate]	71.8%	91.4%
N.N.O=S(O)(O)=S [ATS, Ammoniumthiosulfate]	75.6%	91.2%
CCCCCCCCCC(=O)N(C)CC(O)C(O)C(O)C(O)CO (centres unmarked) [Glucamide #1]	72.1%	92.7%
CC(C)CCC(C)CCC(C)CC(=O)N(C)CC(O)C(O)C(O)C(O)CO (centres unmarked) [Glucamide #2]	79.1%	93.8%
CCCCCCCCCC(=O)N(C)CC1OC(CO)C(O)C1O (centres unmarked) [Glucamide #3]	73.4%	93.5%
CC(C)CCC(C)CCC(C)CC(=O)N(C)CC1OC(CO)C(O)C1O (centres unmarked) [Glucamide #4]	76.0%	94.3%
CCCCCCCC/C=C\CCCCCCCC(=O)N(C)CC(O)C(O)C(O)C(O)CO (centres unmarked) [Glucamide #5]	75.7%	94.0%
CCCCCCCC/C=C\CCCCCCCC(=O)N(C)CC1OC(CO)C(O)C1O (centres unmarked) [Glucamide #6]	76.7%	94.2%
OCCS [MET, Mercaptoethanol]	74.4%	91.4%
CCCCCCCC/C=C\CCCCCCCCN[C@@H](CCSC)C(=O)O [OMet, N-Oleyl-Methionine]	77.6%	92.7%

Test system: not listed separately
Assay: OECD 306 biodegradation
Conditions: day 7

SMILES	OECD 306 biodegradation Day 7
N.O=C(O)CS [ATG, Ammonium Thioglycolate]	9%
CCCCCCCCCC(=O)N(C)CC(O)C(O)C(O)C(O)CO (centres unmarked) [Glucamide #1]	15%
OCCS [MET, Mercaptoethanol]	5%
CCCCCCCC/C=C\CCCCCCCCN[C@@H](CCSC)C(=O)O [OMet, N-Oleyl-Methionine]	60%
O=C([O-])c1ccccc1.[Na+] [Reference, sodium benzoate, reference compound]	78%
NC(N)=S [TU, Thiourea]	19%

Same assay, conditions: day 14

SMILES	OECD 306 biodegradation Day 14
N.O=C(O)CS [ATG, Ammonium Thioglycolate]	20%
CCCCCCCCCC(=O)N(C)CC(O)C(O)C(O)C(O)CO (centres unmarked) [Glucamide #1]	25%
OCCS [MET, Mercaptoethanol]	6%
CCCCCCCC/C=C\CCCCCCCCN[C@@H](CCSC)C(=O)O [OMet, N-Oleyl-Methionine]	60%
O=C([O-])c1ccccc1.[Na+] [Reference, sodium benzoate, reference compound]	74%
NC(N)=S [TU, Thiourea]	32%

Same assay, conditions: day 21

SMILES	OECD 306 biodegradation Day 21
N.O=C(O)CS [ATG, Ammonium Thioglycolate]	33%
CCCCCCCCCC(=O)N(C)CC(O)C(O)C(O)C(O)CO (centres unmarked) [Glucamide #1]	33%
OCCS [MET, Mercaptoethanol]	8%
CCCCCCCC/C=C\CCCCCCCCN[C@@H](CCSC)C(=O)O [OMet, N-Oleyl-Methionine]	60%
O=C([O-])c1ccccc1.[Na+] [Reference, sodium benzoate, reference compound]	86%
NC(N)=S [TU, Thiourea]	20%

Same assay, conditions: day 28

SMILES	OECD 306 biodegradation Day 28
N.O=C(O)CS [ATG, Ammonium Thioglycolate]	39%
CCCCCCCCCC(=O)N(C)CC(O)C(O)C(O)C(O)CO (centres unmarked) [Glucamide #1]	31%
OCCS [MET, Mercaptoethanol]	17%
CCCCCCCC/C=C\CCCCCCCCN[C@@H](CCSC)C(=O)O [OMet, N-Oleyl-Methionine]	60%
O=C([O-])c1ccccc1.[Na+] [Reference, sodium benzoate, reference compound]	68%
NC(N)=S [TU, Thiourea]	55%
